Experimental data: patent publication US20250115583A1, “BICYCLIC INDAZOLE GLUCOCORTICOID RECEPTOR ANTAGONISTS” (Corcept Therapeutics Incorporated, priority 2021, published 2025)

Target: glucocorticoid receptor (Homo sapiens (Human), UniProt P04150)
Experiment: HepG2 TAT assay: inhibition of dexamethasone-induced tyrosine aminotransferase (TAT) activity
Assay type: cell-based
Settings: HepG2 cells, challenge of 100 nM dexamethasone, 18-24 hr; IC50 converted to Ki by Cheng and Prusoff equation
Description: Glucocorticoid mediated activation of TAT occurs by transactivation of glucocorticoid response elements in the TAT promoter by glucocorticoid receptor-agonist complex.
HepG2 cells were cultured using MEME media supplemented with 10% (v/v) foetal bovine serum; 2 mM L-glutamine and 1% (v/v) NEAA at 37° C., 5%/95% (v/v) CO2/air.
Compounds were serially half log diluted in 100% (v/v) dimethylsulphoxide from a 10 mM stock.
HepG2 cells were then lysed with 30 μl of cell lysis buffer containing a protease inhibitor cocktail for 15 minutes at 4° C. […] After 2 hours incubation at 37° C. the reaction was terminated by the addition of 15 μl of 10M aqueous potassium hydroxide solution, and the plates incubated for a further 30 minutes at 37° C.
[compound] and fitting the data to a 4 parameter logistic equation.

glucocorticoid receptor, sequence (P04150 whole entry): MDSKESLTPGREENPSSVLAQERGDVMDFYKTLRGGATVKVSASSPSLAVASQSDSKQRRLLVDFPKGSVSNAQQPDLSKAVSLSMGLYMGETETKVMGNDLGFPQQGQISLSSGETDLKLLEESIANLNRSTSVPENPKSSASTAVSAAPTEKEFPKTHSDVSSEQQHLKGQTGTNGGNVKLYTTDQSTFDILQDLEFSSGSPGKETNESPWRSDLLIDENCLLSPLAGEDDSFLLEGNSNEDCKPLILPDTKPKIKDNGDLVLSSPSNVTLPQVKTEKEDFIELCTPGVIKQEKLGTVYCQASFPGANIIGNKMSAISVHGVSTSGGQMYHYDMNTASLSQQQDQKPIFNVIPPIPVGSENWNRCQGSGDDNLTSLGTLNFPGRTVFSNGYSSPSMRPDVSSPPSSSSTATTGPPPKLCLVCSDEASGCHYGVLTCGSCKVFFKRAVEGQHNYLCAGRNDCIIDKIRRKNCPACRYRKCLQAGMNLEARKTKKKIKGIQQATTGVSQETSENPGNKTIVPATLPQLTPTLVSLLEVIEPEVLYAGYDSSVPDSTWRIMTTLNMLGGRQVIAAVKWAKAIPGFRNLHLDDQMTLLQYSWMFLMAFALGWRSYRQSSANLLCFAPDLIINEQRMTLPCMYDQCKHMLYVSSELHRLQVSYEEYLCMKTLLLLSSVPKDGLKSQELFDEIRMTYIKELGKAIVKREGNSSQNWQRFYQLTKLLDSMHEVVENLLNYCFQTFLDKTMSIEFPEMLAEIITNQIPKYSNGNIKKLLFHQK

Row | Ki | Structure (SMILES)
1 | 13 nM | Cc1cc2c(cnn2-c2ccc(F)cc2)cc1[C@@]12CN(C(=O)c3cc(C#N)ccn3)C[C@@H]1[C@H]2c1ccccc1 (single isomer, unassigned) [Example 149, 2-(1-(1-(4-fluorophenyl)-6-methyl-1H-indazol-5-yl)-6-phenyl-3-azabicyclo[3.1.0]hexane-3-carbonyl)isonicotinonitrile]
2 | 18 nM | Cc1cc2c(cnn2-c2ccc(F)cc2)cc1[C@@]12CN(C(=O)c3cc(C(F)(F)F)ccn3)C[C@@H]1[C@H]2c1ccccc1 (single isomer, unassigned) [Example 150, (1-(1-(4-fluorophenyl)-6-methyl-1H-indazol-5-yl)-6-phenyl-3-azabicyclo[3.1.0]hexan-3-yl)(4-(trifluoromethyl)pyridin-2-yl)methanone]
3 | 28 nM | Cc1ccc(C(=O)N2C[C@@H]3[C@@H](c4ccccc4)[C@]3(c3cc4cnn(-c5ccc(F)cc5)c4cc3C)C2)nc1 (single isomer, unassigned) [Example 151, (1-(1-(4-fluorophenyl)-6-methyl-1H-indazol-5-yl)-6-phenyl-3-azabicyclo[3.1.0]hexan-3-yl)(5-methylpyridin-2-yl)methanone]
4 | 20 nM | Cc1cc2c(cnn2-c2ccc(F)cc2)cc1[C@@]12CN(C(=O)c3ccc(F)cn3)C[C@@H]1[C@H]2c1ccccc1 (single isomer, unassigned) [Example 152, (1-(1-(4-fluorophenyl)-6-methyl-1H-indazol-5-yl)-6-phenyl-3-azabicyclo[3.1.0]hexan-3-yl)(5-fluoropyridin-2-yl)methanone]
5 | 38 nM | Cc1nc(C(=O)N2C[C@@H]3[C@@H](c4ccccc4)[C@]3(c3cc4cnn(-c5ccc(F)cc5)c4cc3C)C2)cs1 (single isomer, unassigned) [Example 153, (1-(1-(4-fluorophenyl)-6-methyl-1H-indazol-5-yl)-6-phenyl-3-azabicyclo[3.1.0]hexan-3-yl)(2-methylthiazol-4-yl)methanone]
6 | 19 nM | Cc1cc2c(cnn2-c2ccc(F)cc2)cc1[C@@]12CN(C(=O)c3ncccc3C#N)C[C@@H]1[C@H]2c1ccccc1 (single isomer, unassigned) [Example 155, 2-(1-(1-(4-fluorophenyl)-6-methyl-1H-indazol-5-yl)-6-phenyl-3-azabicyclo[3.1.0]hexane-3-carbonyl)nicotinonitrile]
7 | 19 nM | Cc1cc2c(cnn2-c2ccc(F)cc2)cc1[C@@]12CN(C(=O)c3ccc(C#N)cn3)C[C@@H]1[C@H]2c1ccccc1 (single isomer, unassigned) [Example 163, 6-(1-(1-(4-fluorophenyl)-6-methyl-1H-indazol-5-yl)-6-phenyl-3-azabicyclo[3.1.0]hexane-3-carbonyl)nicotinonitrile]
8 | 84 nM | Cc1cc2c(cnn2-c2ccc(F)cc2)cc1[C@@]12CN(C(=O)c3ccncc3)C[C@@H]1[C@H]2c1ccccc1 (single isomer, unassigned) [Example 165, (1-(1-(4-fluorophenyl)-6-methyl-1H-indazol-5-yl)-6-phenyl-3-azabicyclo[3.1.0]hexan-3-yl)(pyridin-4-yl)methanone]
9 | 21 nM | Cc1cc2c(cnn2-c2ccc(F)cc2)cc1[C@@]12CN(C(=O)c3ccc(C4CC4)cn3)C[C@@H]1[C@H]2c1ccccc1 (single isomer, unassigned) [Example 167, (5-cyclopropylpyridin-2-yl)(1-(1-(4-fluorophenyl)-6-methyl-1H-indazol-5-yl)-6-phenyl-3-azabicyclo[3.1.0]hexan-3-yl)methanone]
10 | 41 nM | Cc1cc2c(cnn2-c2ccc(F)cc2)cc1[C@@]12CN(C(=O)c3ncnn3C)C[C@@H]1[C@H]2c1ccccc1 (single isomer, unassigned) [Example 170, (1-(1-(4-fluorophenyl)-6-methyl-1H-indazol-5-yl)-6-phenyl-3-azabicyclo[3.1.0]hexan-3-yl)(1-methyl-1H-1,2,4-triazol-5-yl)methanone]
11 | 26 nM | Cc1cc2c(cnn2-c2ccc(F)cc2)cc1[C@@]12CN(C(=O)c3ncn(C)n3)C[C@@H]1[C@H]2c1ccccc1 (single isomer, unassigned) [Example 172, (1-(1-(4-fluorophenyl)-6-methyl-1H-indazol-5-yl)-6-phenyl-3-azabicyclo[3.1.0]hexan-3-yl)(1-methyl-1H-1,2,4-triazol-3-yl)methanone]
12 | 47 nM | CO[C@@]1(c2ccccc2)C[C@H]2CN(S(=O)(=O)c3cnn(C)n3)C[C@@]2(c2cc3cnn(-c4ccc(F)cc4)c3cc2C)C1 (stereo in doubt) [Example 19, 1-(4-fluorophenyl)-5-(5-methoxy-2-((2-methyl-2H-1,2,3-triazol-4-yl)sulfonyl)-5-phenylhexahydrocyclopenta[c]pyrrol-3a(1H)-yl)-6-methyl-1H-indazole]
13 | 570 nM | Cc1cc2c(cnn2-c2ccc(F)cc2)cc1[C@@]12CN(S(=O)(=O)c3cnn(C)n3)C[C@@H]1[C@@H]2CO (stereo in doubt) [Example 48, (1-(1-(4-fluorophenyl)-6-methyl-1H-indazol-5-yl)-3-((2-methyl-2H-1,2,3-triazol-4-yl)sulfonyl)-3-azabicyclo[3.1.0]hexan-6-yl) methanol]
14 | 120 nM | Cc1cc2c(cnn2-c2ccc(F)cc2)cc1[C@@]12CN(S(=O)(=O)c3cnn(C)n3)C[C@@H]1[C@H]2COc1ccccc1 (stereo in doubt) [Example 49, 1-(4-fluorophenyl)-6-methyl-5-(3-((2-methyl-2H-1,2,3-triazol-4-yl)sulfonyl)-6-(phenoxymethyl)-3-azabicyclo[3.1.0]hexan-1-yl)-1H-indazole]
15 | 290 nM | Cc1cc2c(cnn2-c2ccc(F)cc2)cc1[C@@]12CN(S(=O)(=O)c3cnn(C)n3)C[C@@H]1[C@H]2COC(C)C (stereo in doubt) [Example 51, 1-(4-fluorophenyl)-5-(6-(isopropoxymethyl)-3-((2-methyl-2H-1,2,3-triazol-4-yl)sulfonyl)-3-azabicyclo[3.1.0]hexan-1-yl)-6-methyl-1H-indazole]
16 | 33 nM | Cc1cc2c(cnn2-c2ccc(F)cc2)cc1[C@]12CN(S(=O)(=O)c3cnn(C)n3)C[C@H]1[C@@H]2C(=O)Nc1ccc(F)cn1 (stereo in doubt) [Example 54, 1-(1-(4-fluorophenyl)-6-methyl-1H-indazol-5-yl)-N-(5-fluoropyridin-2-yl)-3-((2-methyl-2H-1,2,3-triazol-4-yl)sulfonyl)-3-azabicyclo[3.1.0]hexane-6-carboxamide]
17 | 300 nM | Cc1cc2c(cnn2-c2ccc(F)cc2)cc1[C@@]12CN(S(=O)(=O)c3cnn(C)n3)C[C@@H]1[C@H]2C(=O)N1CCCC1 (stereo in doubt) [Example 55, (1-(1-(4-fluorophenyl)-6-methyl-1H-indazol-5-yl)-3-((2-methyl-2H-1,2,3-triazol-4-yl)sulfonyl)-3-azabicyclo[3.1.0]hexan-6-yl)(pyrrolidin-1-yl)methanone]
18 | 38 nM | Cc1cc2c(cnn2-c2ccc(F)cc2)cc1[C@@]12CN(S(=O)(=O)c3cnn(C)n3)C[C@@H]1[C@H]2C(=O)Nc1ccc(F)cn1 (stereo in doubt) [Example 56, 1-(1-(4-fluorophenyl)-6-methyl-1H-indazol-5-yl)-N-(5-fluoropyridin-2-yl)-3-((2-methyl-2H-1,2,3-triazol-4-yl)sulfonyl)-3-azabicyclo[3.1.0]hexane-6-carboxamide]
19 | 190 nM | Cc1cc2c(cnn2-c2ccc(F)cc2)cc1[C@]12CN(S(=O)(=O)c3cnn(C)n3)C[C@H]1[C@@H]2C(=O)Nc1ccc(F)cn1 (stereo in doubt) [Example 57, 1-(1-(4-fluorophenyl)-6-methyl-1H-indazol-5-yl)-N-(5-fluoropyridin-2-yl)-3-((2-methyl-2H-1,2,3-triazol-4-yl)sulfonyl)-3-azabicyclo[3.1.0]hexane-6-carboxamide]
20 | 90 nM | CC(=O)N1C[C@H]2[C@H](C(=O)Nc3ccc(F)cn3)[C@@]2(c2cc3cnn(-c4ccc(F)cc4)c3cc2C)C1 (stereo in doubt) [Example 68, 3-acetyl-1-(1-(4-fluorophenyl)-6-methyl-1H-indazol-5-yl)-N-(5-fluoropyridin-2-yl)-3-azabicyclo[3.1.0]hexane-6-carboxamide]
21 | 23 nM | Cc1cc2c(cnn2-c2ccc(F)cc2)cc1[C@@]12CN(C(=O)c3ccccc3)C[C@@H]1[C@H]2c1ccccc1 (stereo in doubt) [Example 110, (1-(1-(4-fluorophenyl)-6-methyl-1H-indazol-5-yl)-6-phenyl-3-azabicyclo[3.1.0]hexan-3-yl)(phenyl)methanone]
22 | 26 nM | Cc1cc2c(cnn2-c2ccc(F)cc2)cc1[C@@]12CN(C(=O)c3cccc(C#N)c3)C[C@@H]1[C@H]2c1ccccc1 (stereo in doubt) [Example 114, 3-(1-(1-(4-fluorophenyl)-6-methyl-1H-indazol-5-yl)-6-phenyl-3-azabicyclo[3.1.0]hexane-3-carbonyl)benzonitrile]
23 | 36 nM | Cc1cc2c(cnn2-c2ccc(F)cc2)cc1[C@@]12CN(C(=O)c3ccc(C#N)cc3)C[C@@H]1[C@H]2c1ccccc1 (stereo in doubt) [Example 115, 4-(1-(1-(4-fluorophenyl)-6-methyl-1H-indazol-5-yl)-6-phenyl-3-azabicyclo[3.1.0]hexane-3-carbonyl)benzonitrile]
24 | 31 nM | Cc1cc2c(cnn2-c2ccc(F)cc2)cc1[C@@]12CN(C(=O)c3ccccn3)C[C@@H]1[C@H]2c1ccccc1 (stereo in doubt) [Example 116, (1-(1-(4-fluorophenyl)-6-methyl-1H-indazol-5-yl)-6-phenyl-3-azabicyclo[3.1.0]hexan-3-yl)(pyridin-2-yl)methanone]
